Experiments:
MDA-MB-231 = experiment: Combination screen of TAS-108 with a second compound, CellTiter-Glo; details: MDA-MB-231, in combination with TAS-108
Procedure: (§1) Cells were treated with compounds alone or in combination for three days and CellTiter-Glo® Luminescent Cell Viability Assay (Promega Corp.) was used as the endpoint to measure cell viability.
(§2) Cells were cultured in RPMI with 10% fetal bovine serum and used between passage 2 and passage 20.
(§3) Other compounds used were purchased from commercial sources (Sigma, AK Scientific). 40 mM Compound stocks in 100% DMSO were made. Master plates were made with Janus (PerkinElmer), then further diluted and added to the cell plates with Matrix Platemate (Thermo) on Day 0.
(§4) CellTiter-Glo® Luminescent Cell Viability Assay (Promega Corp.) was used to measure ATP as an indicator of viable cells on Day 3 using Envision (PerkinElmer) and back up plate reader Analyst HT (MDS) and Gen5 (BioTek).
(§5) Relative Luminescent Units (RLU) were plotted against corresponding drug concentrations and fitted with a standard four parameter sigmoidal curve with custom coded R program. Percentage growth inhibition is calculated as: [(Ti−Tz)/(C−Tz)]×100 for concentrations for which Ti≧Tz and [(Ti−Tz)/Tz]×100 for concentrations for which Ti<Tz.
(§6) Twenty-five doses were tested for each pair of combinations.
(§7) N: no synergistic effect; Y: synergistic effect; y: weak synergistic effect.

T-47D = experiment: as above; details: in combination with TAS-108
BT-549 = experiment: as above; format: cell-based, human; details: BT-549, in combination with TAS-108
MDA-MB-468 = experiment: as above; details: MDA-MB-468, in combination with TAS-108
Procedure: as §1, §2, §3, §4, §5, §6, §7

[1] = test system: human mammary carcinoma cell lines; experiment: Combination screen of TAS-108 with a second compound, all six breast lines; details: number of the six breast cell lines with synergy, in combination with TAS-108
Procedure: as §1, §2, §3, §4, §5, §6, §7

MCF7 = experiment: Combination screen of TAS-108 with a second compound, CellTiter-Glo; details: MCF7, in combination with TAS-108
Procedure: as §1, §2, §3, §4, §5, §6, §7

HS 578T = experiment: as above; details: in combination with TAS-108
Procedure: as §1, §2, §3, §4, §5, §6, §7

CNC(=O)c1cc(Oc2ccc(NC(=O)Nc3ccc(Cl)c(C(F)(F)F)c3)cc2)ccn1 [Sorafenib]
Synergistic effect of TAS 108 paired with compound (MDA-MB-231): N | Synergistic effect of TAS 108 paired with compound (T-47D): N | Synergistic effect of TAS 108 paired with compound (BT-549): N | Synergistic effect of TAS 108 paired with compound (MDA-MB-468): N | Synergy # [1]: 0 | Synergistic effect of TAS 108 paired with compound (MCF7): N | Synergistic effect of TAS 108 paired with compound (HS 578T): N
